Reference: ChEMBL document CHEMBL6115028, “An Amazing 30-Year Journey around the DABO Family: A Medicinal Chemistry Lesson on a Versatile Class of Non-nucleoside HIV-1 Reverse Transcriptase Inhibitors” (J Med Chem, 2025)
≈ marks a conversion by molar mass, not a printed value.

Legend:
[1] = test system: Human immunodeficiency virus 1; assay: Antiviral activity against HIV-1 harboring RT K103N mutant infected in human MT4 cells assessed as protection against virus-induced cytopathic effect measured for 5 days by MTT assay; format: functional, organism-based; details: Human immunodeficiency virus 1, MT4, 120 h
MT4 [2] = assay: Cytotoxicity against human MT4 cells; format: functional
MT4 [3] = assay: Cytotoxicity against human MT4 cells assessed as reduction in cell growth incubated for 5 days by MTT assay; format: functional; details: MT4, 120 h, time 5 day
[4] = test system: Human immunodeficiency virus 1; assay: Antiviral activity against HIV-1 3B infected in human MT4 cells assessed as reduction in viral replication incubated for 5 days by MTT assay; format: functional, organism-based; details: Human immunodeficiency virus 1, 3B, MT4, 120 h
MT4 [5] = assay: Cytotoxicity against human MT4 cells assessed as reduction in cell viability incubated for 4 days by MTT assay; format: functional; details: MT4, 96 h, time 4 day
[6] = test system: Human immunodeficiency virus 1; assay: Antiviral activity against […] infected in human MT4 cells assessed as reduction in cytopathic effect measured after 4 days by MTT assay; format: functional, organism-based; details: Human immunodeficiency virus 1, IIIB, MT4, 96 h
[7] = test system: Human immunodeficiency virus 1; assay: Antiviral activity against wild type HIV-1 IIIB harboring Y181C/K103N double mutant infected in human MT4 cells assessed as reduction in cytopathic effect measured after 4 days by MTT assay; format: functional, organism-based; details: Human immunodeficiency virus 1, IIIB, MT4, 96 h
[8] = test system: Human immunodeficiency virus 1; assay: Antiviral activity against wild type HIV-1 IIIB infected in human MT4 cells assessed as reduction in cytopathic effect measured after 4 days by MTT assay; format: functional, organism-based; details: Human immunodeficiency virus 1, IIIB, MT4, 96 h
[9] = Selectivity index, ratio of CC50 for human MT4 cells to EC50 for antiviral activity against HIV1 infected in human MT4 cells; format: toxicity, cell-based; details: read-out: Ratio CC50/EC50
MT4 [10] = assay: Cytotoxicity against human MT4 cells assessed as reduction in […] incubated for 4 days by MTT assay; format: functional; details: MT4, 96 h, time 4 day
[11] = test system: Human immunodeficiency virus 1; assay: Antiviral activity against HIV1 IIIB infected in human MT4 cells assessed as reduction in virus-induced cytopathic effect incubated for 4 days by MTT assay; format: functional, organism-based; details: Human immunodeficiency virus 1, IIIB, MT4, 96 h
[12] = test system: Human immunodeficiency virus 1; assay: Antiviral activity against HIV-1 infected in human MT4 cells; format: functional, organism-based; details: Human immunodeficiency virus 1, MT4
Human alphaherpesvirus 1 = assay: Antiviral activity against HSV-1 infected in Vero cells by plaque reduction assay; format: functional; details: Human alphaherpesvirus 1, Vero; read-out: ED50 (the source's name)
[13] = Toxicity in African green monkey Vero cells assessed as reduction in cell viability incubated for 72 hrs by MTT assay; format: cell-based; details: chlorocebus sabaeus, read-out: TD50
[14] = test system: Human immunodeficiency virus 1; assay: Antiviral activity against HIV-1 IIIB infected in human C8166 cells assessed as reduction in viral replication measured for 3 days; format: functional; details: Human immunodeficiency virus 1, IIIB, C8166, 72 h; time 3 day; read-out: ED50 (the source's name)
[15] = Toxicity in human C8166 cells assessed as reduction in cell viability incubated for 72 hrs by MTT assay; format: cell-based; details: read-out: TD50
MT2 = assay: Cytotoxicity against human MT2 cells; format: functional
[16] = test system: Human immunodeficiency virus 1; assay: Antiviral activity against wild type HIV-1 IIIB infected in human MT4 cells assessed as protection against virus-induced cytopathic effect incubated for 72 hrs by MTT assay; format: functional, organism-based; details: Human immunodeficiency virus 1, IIIB, MT4, 72 h
[17] = test system: Human immunodeficiency virus 1; assay: Antiviral activity against wild type HIV-1 NL4-3 infected in human MT4 cells assessed as reduction in viral replication; format: functional, organism-based; details: Human immunodeficiency virus 1, NL4-3, MT4; read-out: EC50
[18] = test system: Human immunodeficiency virus 1; assay: Antiviral activity against HIV-1 NL4-3 harboring infected Y181C mutant infected in human MT4 cells assessed as reduction in viral replication; format: functional, organism-based; details: Human immunodeficiency virus 1, NL4-3, MT4
[19] = test system: Human immunodeficiency virus 1; assay: Antiviral activity against NNRTI-resistant HIV-1 harboring E138K mutant infected in human MT4 cells assessed as protection against virus-induced cytopathic effect by MTT assay; format: functional, organism-based; details: Human immunodeficiency virus 1, MT4
[20] = test system: Human immunodeficiency virus 1; assay: Antiviral activity against HIV-1 NL4-3 harboring infected K103N mutant infected in human MT4 cells assessed as reduction in viral replication; format: functional, organism-based; details: Human immunodeficiency virus 1, NL4-3, MT4
[21] = test system: Human immunodeficiency virus 1; assay: Antiviral activity against wild-type HIV-1 IIIB infected in human MT4 cells assessed as reduction in virus-induced cytopathic effect incubated for 5 days by MTT assay; format: functional, organism-based; details: Human immunodeficiency virus 1, IIIB, MT4, 120 h
[22] = molecular target: T1, Human immunodeficiency virus type 1 reverse transcriptase (Human immunodeficiency virus 1, UniProt Q72547); assay: Inhibition of wild type HIV-1 Reverse transcriptase
MT4 [23] = assay: Cytotoxicity against human MT4 cells assessed as reduction in cell growth after 5 days by MTT assay; format: functional; details: MT4, 120 h, time 5 day
[24] = molecular target: T1, Human immunodeficiency virus type 1 reverse transcriptase; assay: Inhibition of recombinant HIV-1 reverse transcriptase associated RNA-dependent DNA polymerase activity
[25] = test system: Human immunodeficiency virus 1; assay: Antiviral activity against wild type HIV-1 NL4-3 infected in human MT4 cells assessed as reduction in viral replication measured for 72 hrs by ELISA analysis; format: functional, organism-based; details: Human immunodeficiency virus 1, NL4-3, MT4, 72 h
[26] = Binding affinity to HIV-1 reverse transcriptase Y181L mutant assessed as inhibition constant; set-up: species or system Human immunodeficiency virus 1
Reverse transcriptase [27] = molecular target: T2, Reverse transcriptase (Human immunodeficiency virus 1, UniProt Q9WKE8, K103N); assay: Binding affinity to HIV-1 reverse transcriptase K103N mutant assessed as inhibition constant
Reverse transcriptase [28] = molecular target: T2, Reverse transcriptase; assay: Inhibition of HIV-1 Reverse transcriptase K103N mutant
[29] = test system: Human immunodeficiency virus 1; assay: Antiviral activity against HIV-1 NL4-3 harboring infected Y188L mutant infected in human MT4 cells assessed as reduction in viral replication; format: functional, organism-based; details: Human immunodeficiency virus 1, NL4-3, MT4

In the case of `Cc1cc(=O)[nH]c(SCCN2C(=O)c3ccccc3C2=O)n1`, the EC50 [1] is reported as 1900 nM and the CC50 (MT4 [2]) is reported as 117 µM.
`CCC(C)Sc1nc(Cc2cc(C)cc(C)c2)c(Br)c(=O)[nH]1` (stereo not drawn) showed a CC50 (MT4 [3]) of 153 µM and an EC50 [4] of 6.7 µM.
In the case of `C=CCc1c(Cc2cc(C)cc(C)c2)nc(SCC2OCCC(C)O2)[nH]c1=O` (stereo not drawn), the CC50 (MT4 [3]) is reported as over 100 µM and the EC50 [4] is reported as 0.55 µM.
Molecule `Cc1c(C(=O)c2c(F)cccc2F)nc(N(C)C)[nH]c1=O` has a CC50 (MT4 [5]) of over 100 µM, an EC50 [6] of 94 µM and an EC50 [7] of over 100 µM. For the same molecule, the EC50 [8] was 300 nM.
With `CCC(C)Sc1nc(O)cc(Cc2cccc3ccccc23)n1` (stereo not drawn) the selectivity ratio [9] was over 909, the CC50 (MT4 [10]) was over 300 µM and the EC50 [11] was 330 nM.
`CCC(C)Sc1nc(Cc2cc(C)cc(C)c2)c(I)c(=O)[nH]1` (stereo not drawn) gave a CC50 (MT4 [3]) of 144 µM and an EC50 [4] of 4.3 µM.
Molecule `CCCSc1nc(C2(c3c(F)cccc3F)CC2)c(C)c(=O)[nH]1` has a selectivity ratio [9] of 3000, a CC50 (MT4 [2]) of 12 µM and an EC50 [12] of 4 nM.
Work on `Cc1c(C(Br)c2c(F)cccc2F)nc(N(C)C)[nH]c1=O` (stereo not drawn) yielded a CC50 (MT4 [5]) of 43 µM, an EC50 [6] of 43 µM and an EC50 [7] of 43 µM. For the same molecule, the EC50 [8] was 200 nM.
With `COc1ccc(Cc2cc(N)nc(OC)n2)cc1` the EC50 (Human alphaherpesvirus 1) was 25 µg/mL (≈ 102 µM), the CC50 at 72 h [13] was 50 µg/mL (≈ 204 µM) and the EC50 [14] was 12.5 µg/mL (≈ 51 µM). For the same molecule, the CC50 at 72 h [15] was 50 µg/mL (≈ 204 µM).
Molecule `C=C(c1nc(N(C)C)[nH]c(=O)c1C)c1c(F)cccc1F` has a CC50 (MT4 [5]) of over 100 µM, an EC50 [6] of 44 µM and an EC50 [7] of over 100 µM. The EC50 [8] was 200 nM.
`CSc1nc(C(C)C)c(CC2CCCCC2)n1COCc1ccccc1` showed a CC50 (MT2) of 31 µM.
In the case of `CCOCn1c(SC)nc(C(C)C)c1CC1CCCCC1`, the CC50 (MT2) is reported as 39 µM.
For `COc1cccc(Sc2nc(Cc3cc(C)cc(C)c3)c(C)c(=O)[nH]2)c1`, the EC50 [16] was 1600 nM and the CC50 (MT4 [2]) was over 100 µM.
`COc1ccc(CN(C)c2nc(C(C)c3c(F)cccc3F)c(C)c(=O)[nH]2)cc1` (stereo not drawn) showed an EC50 [17] of 3 nM, an EC50 [18] of 80 nM and an EC50 [19] of 102 nM. For the same molecule, the EC50 [20] was 102 nM.
For `Cc1c(C(C)c2c(F)cccc2F)nc(NC2CCCCC2)[nH]c1=O` (stereo not drawn), the EC50 [21] was 20 nM, the IC50 [22] was 35 nM and the CC50 (MT4 [23]) was 90 µM.
`CCCCOc1nc(Cc2ccc(OC)cc2)cc(=O)[nH]1` gave an EC50 (Human alphaherpesvirus 1) of 50 µg/mL (≈ 173 µM), a CC50 at 72 h [13] of 100 µg/mL (≈ 347 µM) and an EC50 [14] of 25 µg/mL (≈ 86.7 µM). It also gave a CC50 at 72 h [15] of 100 µg/mL (≈ 347 µM).
With `CSCCSc1nc(C2(c3c(F)cccc3F)CC2)c(C)c(=O)[nH]1` the selectivity ratio [9] was 2330, the CC50 (MT4 [2]) was 14 µM and the EC50 [12] was 5 nM.
In the case of `Cc1c(C2(c3c(F)cccc3F)CC2)nc(SC2CCCC2)[nH]c1=O`, the selectivity ratio [9] is reported as 2660, the CC50 (MT4 [2]) is reported as 14 µM and the EC50 [12] is reported as 5 nM.
`Cc1ccccc1Cc1nc(SC2CCCCC2)[nH]c(=O)c1C` showed a selectivity ratio [9] of over 506, a CC50 (MT4 [10]) of over 304 µM and an IC50 [24] of 1300 nM. It also gave an EC50 [11] of 600 nM.
`CCc1nc(SC)n(COCc2ccccc2)c1CC1CCCCC1` showed a CC50 (MT2) of 25 µM.
For `CCCN(C)c1nc(C(C)c2c(F)cccc2F)c(C)c(=O)[nH]1` (stereo not drawn), the EC50 [25] was 5 nM, the Ki [26] was 1430 nM and the Ki (Reverse transcriptase [27]) was 170 nM.
In the case of `COc1ccc(C2CC2CN(C)c2nc(C(C)c3c(F)cccc3F)cc(=O)[nH]2)cc1` (stereo not drawn), the IC50 (Reverse transcriptase [28]) is reported as 985 nM, the EC50 [17] is reported as 3 nM and the EC50 [18] is reported as over 5000 nM. The EC50 [20] was 70 nM and the EC50 [29] was 2950 nM.
Work on `Cc1c(C(F)c2c(F)cccc2F)nc(N(C)C)[nH]c1=O` (stereo not drawn) yielded a CC50 (MT4 [5]) of over 100 µM, an EC50 [6] of 2.8 µM and an EC50 [7] of over 100 µM. For the same molecule, the EC50 [8] was 20 nM.
In the case of `COc1ccc(C2CC2CNc2nc(C(C)c3c(F)cccc3F)cc(=O)[nH]2)cc1` (stereo not drawn), the IC50 (Reverse transcriptase [28]) is reported as 880 nM, the EC50 [17] is reported as 1 nM and the EC50 [18] is reported as 100 nM. For the same molecule, the EC50 [20] was 130 nM and the EC50 [29] was over 5000 nM.
